Assay results published in US20100104659A1, “BENZOPYRANOPYRAZOLES” (priority 2006, published 2010).

Columns and labels:
[1] = test system: RKO human colon adenocarcinoma cells (RKOp27 subclone), proliferating; assay: Alamar Blue cell viability assay, RKO p27 uninduced (proliferating); conditions: RKOp27, 72 h, read-out: −log EC50 [mol/l] RKO p27 uninduced (proliferating), anti-proliferative/cytotoxic activity (converted)
Protocol: (§1) The anti-proliferative/cytotoxic activity of the compounds described herein can be tested on subclones of RKO human colon adenocarcinoma cells (Schmidt et al., Oncogene 19, 2423-2429; 2000) using the Alamar Blue cell viability assay (described in O'Brien et al. Eur J Biochem 267, 5421-5426, 2000). The compounds are dissolved as 10 mM solutions in DMSO and subsequently diluted in semi-logarithmic steps. DMSO dilutions are further diluted 1:100 into Dulbecco's modified Eagle's medium (DMEM) containing 10% fetal calf serum to a final concentration twice as much as the final concentration in the test. RKO subclones are seeded into 96 well flat bottom plates at a density of 4000 cells per well in a volume of 50 μl per well. 24 hours after seeding the 50 μl each of the compound dilutions in DMEM medium are added into each well of the 96 well plate. Each compound dilution is tested as triplicates. Wells containing untreated control cells are filled with 50 μl DMEM medium containing 1% DMSO. The cells are then incubated with the substances for 72 hours at 37° C. in a humidified atmosphere containing 5% carbon dioxide. To determine the viability of the cells, 10 μl of an Alamar Blue solution (Biosource) are added and the fluorescence is measured at an extinction of 544 nm and an emission of 590 nm. For the calculation of the cell viability the emission value from untreated cells is set as 100% viability and the emission rates of treated cells are set in relation to the values of untreated cells. Viabilities are expressed as % values. The Graphpad Prism program (GraphPad Software, Inc) is used for the calculation of EC50 values for anti-proliferative/cytotoxic activity out of the obtained dose-response curves.
(§2) Each compound dilution is tested as triplicates. Wells containing untreated control cells are filled with 50 μl DMEM medium containing 1% DMSO. The cells are then incubated with the substances for 72 hours at 37° C. in a humidified atmosphere containing 5% carbon dioxide. To determine the viability of the cells, 10 μl of an Alamar Blue solution (Biosource) are added and the fluorescence is measured at an extinction of 544 nm and an emission of 590 nm. For the calculation of the cell viability the emission value from untreated cells is set as 100% viability and the emission rates of treated cells are set in relation to the values of untreated cells. Viabilities are expressed as % values. The Graphpad Prism program is used for the calculation of EC50 values out of the obtained dose-response curves. Viability is compared of proliferating cells grown in the absence of the inducer Ponasterone A, versus viability of cells arrested by the expression of ectopic p27Kip1 induced by Ponasterone A.

[2] = test system: RKO human colon adenocarcinoma cells (RKOp27 subclone), proliferating
Protocol: as §1, §2

Molecule | melting point [°C] | EC50 [1] [nM] | −log EC50 [mol/l] RKO p27 uninduced (proliferating), anti-proliferative/cytotoxic activity [2]
CC(C)N(C)C(=O)N1N=C2c3cc(F)ccc3OC[C@@H]2[C@@H]1c1ccccc1 (racemic) [Example 13, (3RS,3aRS)-8-Fluoro-3-phenyl-3a,4-dihydro-3H-chromeno[4,3-c]pyrazole-2-carboxylic acid isopropyl-methyl-amide] | 102 to 105 |  | 
CN(C(=O)N1N=C2c3cc(F)ccc3OC[C@@H]2[C@@H]1c1ccccc1)C1CCNCC1 (racemic) [Example 16, (3RS,3aRS)-8-Fluoro-3-phenyl-3a,4-dihydro-3H-chromeno[4,3-c]pyrazole-2-carboxylic acid methyl-piperidin-4-yl-amide] | 196 | ≤ 100 | 
O=C(N(C1CCNCC1)C1CC1)N1N=C2c3cc(F)ccc3OC[C@@H]2[C@@H]1c1ccccc1 (racemic) [Example 17, (3RS,3aRS)-8-Fluoro-3-phenyl-3a,4-dihydro-3H-chromeno[4,3-c]pyrazole-2-carboxylic acid cyclopropyl-piperidin-4-yl-amide] | 142 | 100 to 1000 | 
(3RS,3aRS)-8-Fluoro-3-phenyl-3a,4-dihydro-3H-chromeno[4,3-c]pyrazole-2-carboxylic acid ((R)-1-isopropyl-piperidin-3-ylmethyl)-methyl-amide and (3RS,3aRS)-8-Fluoro-3-phenyl-3a,4-dihydro-3H-chromeno[4,3-c]pyrazole-2-carboxylic acid ((S)-1-isopropyl-piperidin-3-ylmethyl)-methyl-amide [Example 26] |  |  | (proliferating) ≧7.0 mol/l
(3RS,3aRS)-8-Fluoro-3-phenyl-3a,4-dihydro-3H-chromeno[4,3-c]pyrazole-2-carboxylic acid methyl-((R)-1-methyl-piperidin-3-ylmethyl)-amide and (3RS,3aRS)-8-Fluoro-3-phenyl-3a,4-dihydro-3H-chromeno[4,3-c]pyrazole-2-carboxylic acid methyl-((S)-1-methyl-piperidin-3-ylmethyl)-amide [Example 24] |  |  | (proliferating) ≧7.0 mol/l

More lines, main results first:

melting point [°C] | Molecule | EC50 [1] [nM] | −log EC50 [mol/l] RKO p27 uninduced (proliferating), anti-proliferative/cytotoxic activity [2]
117 | CN(C)C(=O)N1N=C2c3cc(F)ccc3OC[C@@H]2[C@@H]1c1ccccc1 (racemic) [Example 7, (3RS,3aRS)-8-Fluoro-3-phenyl-3a,4-dihydro-3H-chromeno[4,3-c]pyrazole-2-carboxylic acid dimethylamide] | 100 to 1000 | 
133 to 137 | CCN(C)C(=O)N1N=C2c3cc(F)ccc3OC[C@@H]2[C@@H]1c1ccccc1 (racemic) [Example 14, (3RS,3aRS)-8-Fluoro-3-phenyl-3a,4-dihydro-3H-chromeno[4,3-c]pyrazole-2-carboxylic acid ethyl-methyl-amide] | 100 to 1000 | 
113.2 | CN(CCN)C(=O)N1N=C2c3cc(F)ccc3OC[C@@H]2[C@@H]1c1ccccc1 (stereo in doubt) [Example 18, (3RS,3aRS)-8-Fluoro-3-phenyl-3a,4-dihydro-3H-chromeno[4,3-c]pyrazole-2-carboxylic acid (2-amino-ethyl)-methyl-amide] | ≤ 100 | 
